# Reference: ChEMBL document CHEMBL1201862, “PubChem BioAssay data set” (2004)
# The source made the active and inactive calls.
# Assays:
# Cannabinoid receptor 1 = Cannabinoid receptor 1 (Homo sapiens, UniProt P21554); test: SAR analysis of antagonists of the Cannabinoid Receptor 1 using an Image-Based Assay. [Related pubchem assays (depositor defined):AID1961, AID1965]; type: functional
# Cannabinoid receptor 2 [1] = target: T1, Cannabinoid receptor 2 (Homo sapiens, UniProt P34972); test: SAR analysis of agonists of the Cannabinoid Receptor 2 using an Image-Based Assay - Set 2. [Related pubchem assays (depositor defined):AID1961, AID1965]; type: functional
# T1 sequence (P34972 whole entry): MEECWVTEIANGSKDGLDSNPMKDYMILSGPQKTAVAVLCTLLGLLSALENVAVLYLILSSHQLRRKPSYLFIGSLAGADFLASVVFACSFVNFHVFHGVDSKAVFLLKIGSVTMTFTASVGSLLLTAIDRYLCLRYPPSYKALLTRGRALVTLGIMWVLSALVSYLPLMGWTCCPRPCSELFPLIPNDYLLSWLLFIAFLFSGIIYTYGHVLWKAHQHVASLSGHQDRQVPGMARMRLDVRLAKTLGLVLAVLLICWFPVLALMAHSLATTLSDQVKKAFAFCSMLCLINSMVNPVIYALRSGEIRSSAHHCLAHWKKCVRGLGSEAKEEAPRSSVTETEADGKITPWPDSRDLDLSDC
# [2] = target: G-protein coupled receptor 55 (Homo sapiens, UniProt Q9Y2T6); test: SAR analysis of selective Agonists of GPR55 using an Image-Based Assay. [Related pubchem assays (depositor defined):AID1961, AID1965]; type: functional
# G-protein coupled receptor 55, sequence (Q9Y2T6 whole entry): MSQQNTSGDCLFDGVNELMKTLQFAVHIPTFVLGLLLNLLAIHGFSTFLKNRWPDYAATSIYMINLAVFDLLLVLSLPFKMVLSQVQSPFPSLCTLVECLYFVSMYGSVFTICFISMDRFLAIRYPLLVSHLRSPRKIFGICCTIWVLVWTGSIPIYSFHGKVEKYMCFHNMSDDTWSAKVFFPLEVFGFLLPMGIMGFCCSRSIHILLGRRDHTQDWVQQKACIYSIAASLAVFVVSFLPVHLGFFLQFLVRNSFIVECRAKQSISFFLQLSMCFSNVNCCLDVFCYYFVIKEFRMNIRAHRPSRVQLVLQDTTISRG
# Cannabinoid receptor 2 [3] = target: T1, Cannabinoid receptor 2; test: SAR analysis of antagonists of the Cannabinoid Receptor 2 using an Image-Based Assay - Set 2. [Related pubchem assays (depositor defined):AID1961, AID1965]; type: functional
# [4] = target: 1-phosphatidylinositol 4,5-bisphosphate phosphodiesterase beta-3 (Homo sapiens, UniProt Q01970); test: Fluorescence-based biochemical high throughput dose response assay to identify inhibitors of phospholipase C isozymes (PLC-B3).
# 1-phosphatidylinositol 4,5-bisphosphate phosphodiesterase beta-3, sequence (Q01970 whole entry): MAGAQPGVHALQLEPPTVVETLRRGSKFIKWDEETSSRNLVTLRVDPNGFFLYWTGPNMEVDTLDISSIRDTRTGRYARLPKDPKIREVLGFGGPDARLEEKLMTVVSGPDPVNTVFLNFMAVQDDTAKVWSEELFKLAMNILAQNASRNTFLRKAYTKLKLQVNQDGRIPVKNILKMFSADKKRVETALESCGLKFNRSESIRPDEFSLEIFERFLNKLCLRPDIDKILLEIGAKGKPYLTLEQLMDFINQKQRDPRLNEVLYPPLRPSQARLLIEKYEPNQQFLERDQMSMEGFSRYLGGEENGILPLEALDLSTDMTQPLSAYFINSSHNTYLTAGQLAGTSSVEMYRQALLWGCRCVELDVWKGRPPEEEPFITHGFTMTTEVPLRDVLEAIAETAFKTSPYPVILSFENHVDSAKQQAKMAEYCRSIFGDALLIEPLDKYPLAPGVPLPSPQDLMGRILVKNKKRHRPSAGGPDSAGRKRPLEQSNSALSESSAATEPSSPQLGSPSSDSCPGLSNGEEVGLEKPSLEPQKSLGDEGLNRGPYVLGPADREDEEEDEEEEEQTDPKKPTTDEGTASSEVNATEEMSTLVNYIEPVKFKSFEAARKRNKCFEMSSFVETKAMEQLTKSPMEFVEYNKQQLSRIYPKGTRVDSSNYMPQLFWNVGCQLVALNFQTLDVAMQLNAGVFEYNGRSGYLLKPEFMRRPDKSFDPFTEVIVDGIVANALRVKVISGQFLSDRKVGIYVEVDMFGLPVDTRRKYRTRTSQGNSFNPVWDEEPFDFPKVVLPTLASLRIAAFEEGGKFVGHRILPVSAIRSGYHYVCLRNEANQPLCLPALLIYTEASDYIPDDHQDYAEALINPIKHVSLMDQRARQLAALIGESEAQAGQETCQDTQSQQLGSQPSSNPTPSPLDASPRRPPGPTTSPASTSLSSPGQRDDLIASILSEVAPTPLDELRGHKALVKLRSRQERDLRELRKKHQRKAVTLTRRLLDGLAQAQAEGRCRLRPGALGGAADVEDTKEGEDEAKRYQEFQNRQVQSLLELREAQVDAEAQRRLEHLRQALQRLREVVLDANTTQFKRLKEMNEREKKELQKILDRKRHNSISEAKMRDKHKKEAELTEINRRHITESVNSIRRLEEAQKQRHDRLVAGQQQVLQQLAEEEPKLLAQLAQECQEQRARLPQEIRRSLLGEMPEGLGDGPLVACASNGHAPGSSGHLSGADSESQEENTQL
# [5] = target: Induced myeloid leukemia cell differentiation protein Mcl-1 (Homo sapiens, UniProt Q07820); type: functional
# Induced myeloid leukemia cell differentiation protein Mcl-1, sequence (Q07820 whole entry): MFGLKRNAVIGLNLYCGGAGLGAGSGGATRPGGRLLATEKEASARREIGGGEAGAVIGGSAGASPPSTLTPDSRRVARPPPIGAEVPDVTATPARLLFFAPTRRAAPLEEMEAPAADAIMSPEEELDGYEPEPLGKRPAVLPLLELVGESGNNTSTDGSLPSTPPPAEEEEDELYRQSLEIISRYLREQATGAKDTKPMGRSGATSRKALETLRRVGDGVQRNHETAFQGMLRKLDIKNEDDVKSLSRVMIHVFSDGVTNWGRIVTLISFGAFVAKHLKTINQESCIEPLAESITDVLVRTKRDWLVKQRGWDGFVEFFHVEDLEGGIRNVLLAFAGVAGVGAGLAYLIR
# NS3 = NS3 (Hepatitis C virus, UniProt A3EZJ3); test: PubChem AID 2173; parameters: species or system Hepacivirus hominis
# NS3, sequence (A3EZJ3 whole entry): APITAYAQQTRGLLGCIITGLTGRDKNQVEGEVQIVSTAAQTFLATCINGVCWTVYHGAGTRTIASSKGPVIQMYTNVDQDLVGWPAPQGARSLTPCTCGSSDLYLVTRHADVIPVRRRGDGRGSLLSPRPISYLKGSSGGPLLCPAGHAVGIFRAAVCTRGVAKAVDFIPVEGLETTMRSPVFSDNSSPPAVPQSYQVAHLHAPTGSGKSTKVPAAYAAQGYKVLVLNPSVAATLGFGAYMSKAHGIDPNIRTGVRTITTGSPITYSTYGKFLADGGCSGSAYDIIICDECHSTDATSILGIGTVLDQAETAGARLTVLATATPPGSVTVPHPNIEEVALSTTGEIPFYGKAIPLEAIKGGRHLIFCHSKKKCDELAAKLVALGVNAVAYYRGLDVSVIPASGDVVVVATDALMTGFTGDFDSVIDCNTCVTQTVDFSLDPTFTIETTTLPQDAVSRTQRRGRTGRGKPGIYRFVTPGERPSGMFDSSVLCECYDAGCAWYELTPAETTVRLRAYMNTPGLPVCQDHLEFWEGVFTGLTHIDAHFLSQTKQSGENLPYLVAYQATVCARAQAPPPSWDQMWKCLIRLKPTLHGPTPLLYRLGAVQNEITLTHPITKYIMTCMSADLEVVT
# [6] = target: Intestinal-type alkaline phosphatase (Mus musculus, UniProt P24822); test: mouse intestinal alkaline phosphatase activators, dose response, biochemical, luminescence, uHTS hits (AID 488783); type: functional
# Intestinal-type alkaline phosphatase (Mus musculus, UniProt P24822), sequence (P24822 whole entry): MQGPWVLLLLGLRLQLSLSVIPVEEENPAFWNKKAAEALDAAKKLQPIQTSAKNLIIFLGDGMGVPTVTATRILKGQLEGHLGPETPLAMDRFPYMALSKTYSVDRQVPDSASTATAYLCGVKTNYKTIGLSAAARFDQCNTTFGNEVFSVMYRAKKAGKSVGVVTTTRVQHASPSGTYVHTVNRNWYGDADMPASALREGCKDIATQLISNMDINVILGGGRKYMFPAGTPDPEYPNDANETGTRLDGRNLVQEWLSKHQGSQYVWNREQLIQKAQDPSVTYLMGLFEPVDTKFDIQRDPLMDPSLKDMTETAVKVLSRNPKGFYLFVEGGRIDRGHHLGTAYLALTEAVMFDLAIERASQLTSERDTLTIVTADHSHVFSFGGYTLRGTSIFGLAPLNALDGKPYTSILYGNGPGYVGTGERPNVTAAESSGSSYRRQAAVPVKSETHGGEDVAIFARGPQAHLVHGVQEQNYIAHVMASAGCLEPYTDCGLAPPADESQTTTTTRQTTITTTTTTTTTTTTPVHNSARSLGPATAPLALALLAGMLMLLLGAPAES
# [7] = target: 1-phosphatidylinositol 4,5-bisphosphate phosphodiesterase gamma-1 (Homo sapiens, UniProt P19174); test: Counterscreen for inhibitors of phospholipase C isozymes (PLC-B3): Fluorescence-based biochemical high throughput dose response assay to identify inhibitors of phospholipase C isozymes (PLC-gamma1).
# [8] = target: T2, Alkaline phosphatase, tissue-nonspecific isozyme (Homo sapiens, UniProt P05186); test: activation of tissue-nonspecific alkaline phosphatase – biochemical, TNAP isozyme, mouse IAP uHTS hits, selectivity assay for mouse IAP activator project, dose response (AID 488880); type: functional
# T2 sequence (P05186 whole entry): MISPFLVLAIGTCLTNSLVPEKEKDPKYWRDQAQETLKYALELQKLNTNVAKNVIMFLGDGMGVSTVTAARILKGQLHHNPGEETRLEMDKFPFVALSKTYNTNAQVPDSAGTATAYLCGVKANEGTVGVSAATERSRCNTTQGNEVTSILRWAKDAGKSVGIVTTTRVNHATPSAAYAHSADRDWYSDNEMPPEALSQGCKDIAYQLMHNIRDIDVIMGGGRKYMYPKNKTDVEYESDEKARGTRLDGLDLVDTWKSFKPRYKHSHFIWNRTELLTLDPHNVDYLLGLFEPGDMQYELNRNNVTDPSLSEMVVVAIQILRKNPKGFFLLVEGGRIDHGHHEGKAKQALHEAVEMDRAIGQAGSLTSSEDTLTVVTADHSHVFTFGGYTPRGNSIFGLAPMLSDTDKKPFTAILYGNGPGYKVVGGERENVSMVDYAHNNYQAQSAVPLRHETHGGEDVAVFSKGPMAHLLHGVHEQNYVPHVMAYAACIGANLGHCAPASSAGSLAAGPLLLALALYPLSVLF
# [9] = target: Intestinal-type alkaline phosphatase (Homo sapiens, UniProt P09923); test: activation of human intestinal alkaline phosphatase – biochemical, dose response (AID 488873); type: functional
# Intestinal-type alkaline phosphatase (Homo sapiens, UniProt P09923), sequence (P09923 whole entry): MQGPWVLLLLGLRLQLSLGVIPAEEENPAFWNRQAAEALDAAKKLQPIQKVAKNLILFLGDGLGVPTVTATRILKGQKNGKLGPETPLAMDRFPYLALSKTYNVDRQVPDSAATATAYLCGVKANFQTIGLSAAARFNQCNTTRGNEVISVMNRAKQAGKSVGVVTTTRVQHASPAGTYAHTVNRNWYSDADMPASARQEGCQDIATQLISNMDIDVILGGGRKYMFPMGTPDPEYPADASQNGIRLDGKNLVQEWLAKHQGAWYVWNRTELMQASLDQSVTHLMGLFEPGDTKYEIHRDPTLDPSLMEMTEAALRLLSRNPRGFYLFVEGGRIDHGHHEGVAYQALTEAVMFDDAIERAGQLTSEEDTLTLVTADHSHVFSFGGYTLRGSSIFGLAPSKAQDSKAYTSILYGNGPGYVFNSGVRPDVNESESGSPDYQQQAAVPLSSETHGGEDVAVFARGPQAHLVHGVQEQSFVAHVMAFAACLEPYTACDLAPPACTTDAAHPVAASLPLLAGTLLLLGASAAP
# [10] = target: T3, Lysine-specific demethylase 4C (Homo sapiens, UniProt Q9H3R0); test: inhibition of JMJD2C H3K9me3 demethylation – biochemical, DELFIA europium, cherry-picked samples, dose response (AID 488835); type: functional
# T3 sequence (Q9H3R0 whole entry): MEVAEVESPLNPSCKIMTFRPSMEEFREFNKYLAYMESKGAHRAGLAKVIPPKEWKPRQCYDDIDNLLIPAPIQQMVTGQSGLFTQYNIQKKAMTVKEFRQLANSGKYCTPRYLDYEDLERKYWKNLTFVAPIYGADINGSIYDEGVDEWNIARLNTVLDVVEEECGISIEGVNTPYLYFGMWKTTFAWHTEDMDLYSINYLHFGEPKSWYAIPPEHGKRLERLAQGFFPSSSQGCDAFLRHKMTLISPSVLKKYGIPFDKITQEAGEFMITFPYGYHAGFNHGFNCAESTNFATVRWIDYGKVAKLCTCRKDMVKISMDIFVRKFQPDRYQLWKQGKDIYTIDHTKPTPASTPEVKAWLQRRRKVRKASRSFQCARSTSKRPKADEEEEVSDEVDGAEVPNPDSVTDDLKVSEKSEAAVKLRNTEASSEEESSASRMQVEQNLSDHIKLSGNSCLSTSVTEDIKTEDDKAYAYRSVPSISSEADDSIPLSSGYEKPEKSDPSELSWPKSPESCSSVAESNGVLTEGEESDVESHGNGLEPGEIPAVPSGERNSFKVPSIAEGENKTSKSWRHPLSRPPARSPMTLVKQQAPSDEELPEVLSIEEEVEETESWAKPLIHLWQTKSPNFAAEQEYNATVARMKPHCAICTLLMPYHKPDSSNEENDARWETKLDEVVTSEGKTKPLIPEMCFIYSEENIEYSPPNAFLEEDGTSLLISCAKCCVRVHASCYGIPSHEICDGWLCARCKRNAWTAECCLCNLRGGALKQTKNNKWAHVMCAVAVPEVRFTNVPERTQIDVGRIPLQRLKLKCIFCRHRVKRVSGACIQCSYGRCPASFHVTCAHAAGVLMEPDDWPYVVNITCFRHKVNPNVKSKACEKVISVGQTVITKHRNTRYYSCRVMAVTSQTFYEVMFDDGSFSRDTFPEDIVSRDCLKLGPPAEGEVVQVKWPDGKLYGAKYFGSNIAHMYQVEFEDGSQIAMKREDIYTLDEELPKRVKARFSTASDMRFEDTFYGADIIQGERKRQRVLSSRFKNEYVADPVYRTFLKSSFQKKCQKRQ
# [11] = target: Lysine-specific demethylase 4A (Homo sapiens, UniProt O75164); test: inhibition of JMJD2A H3K9me3 demethylation – biochemical, DELFIA europium, cherry-picked samples, selectivity assay for GASC-1 inhibitor project, dose response (AID 488840)
# [12] = target: T4, E3 ubiquitin-protein ligase XIAP (Homo sapiens, UniProt P98170); test: Counter Screen using XIAP-Bir3 of the Chemical Antagonists of IAP-family anti-apoptotic proteins confirmation assay. [Related pubchem assays (depositor defined):AID1018, AID1449, AID1513, AID1638, AID1749, AID1750, AID488957, AID488963]
# T4 sequence (P98170 whole entry): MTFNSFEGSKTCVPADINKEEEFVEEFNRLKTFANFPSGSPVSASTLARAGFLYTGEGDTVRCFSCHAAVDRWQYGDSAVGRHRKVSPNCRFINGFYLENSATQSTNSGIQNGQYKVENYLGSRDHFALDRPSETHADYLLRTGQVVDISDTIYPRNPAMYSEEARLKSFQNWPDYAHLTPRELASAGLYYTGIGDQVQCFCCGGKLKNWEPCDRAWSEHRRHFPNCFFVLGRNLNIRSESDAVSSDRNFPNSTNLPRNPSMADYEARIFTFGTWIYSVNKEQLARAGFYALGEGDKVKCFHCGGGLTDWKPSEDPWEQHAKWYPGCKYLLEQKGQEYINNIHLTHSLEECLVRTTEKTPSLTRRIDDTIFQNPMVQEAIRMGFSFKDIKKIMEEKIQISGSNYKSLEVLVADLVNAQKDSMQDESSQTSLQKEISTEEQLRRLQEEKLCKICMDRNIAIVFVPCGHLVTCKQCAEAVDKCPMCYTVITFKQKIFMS
# [13] = target: T4, E3 ubiquitin-protein ligase XIAP; test: Chemical Antagonists of IAP-family anti-apoptotic proteins confirmation. [Related pubchem assays (depositor defined):AID1018, AID1513, AID1514, AID1638, AID1749, AID1750, AID488957, AID488963]
# Cannabinoid receptor 1, sequence (P21554 whole entry): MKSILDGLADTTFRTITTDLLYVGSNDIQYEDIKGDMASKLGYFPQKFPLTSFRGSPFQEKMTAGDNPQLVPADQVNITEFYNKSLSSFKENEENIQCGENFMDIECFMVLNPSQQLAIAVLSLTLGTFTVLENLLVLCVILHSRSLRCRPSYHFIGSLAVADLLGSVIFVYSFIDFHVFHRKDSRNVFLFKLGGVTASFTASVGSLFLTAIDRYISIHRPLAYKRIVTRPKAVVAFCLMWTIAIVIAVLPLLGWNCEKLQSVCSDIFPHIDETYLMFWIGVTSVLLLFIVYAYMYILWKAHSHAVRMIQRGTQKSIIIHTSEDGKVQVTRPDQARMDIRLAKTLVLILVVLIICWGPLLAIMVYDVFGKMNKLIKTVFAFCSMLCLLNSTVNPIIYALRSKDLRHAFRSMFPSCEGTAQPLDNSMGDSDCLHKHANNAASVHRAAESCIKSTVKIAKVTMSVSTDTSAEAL
compound,measurement,setting,value
CCCN(CCC)Cc1c(C(=O)NN=Cc2c[nH]c3ccccc23)nnn1-c1nonc1N,IC50,Cannabinoid receptor 1,> 32 µM (inactive)
same,EC50,Cannabinoid receptor 2 [1],> 32 µM (inactive)
same,EC50,[2],633 nM (active)
same,IC50,Cannabinoid receptor 2 [3],> 32 µM (inactive)
O=C1/C(=C/C=C/c2ccco2)SC(=S)N1c1ccc(O)cc1,IC50,[4],> 123 µM (inactive)
same,IC50,[5],1.72 µM (active)
same,IC50,NS3,5.35 µM (active)
same,EC50,[6],59 µM (active)
same,IC50,[7],> 123 µM (inactive)
same,EC50,[8],91.3 µM (active)
same,EC50,[9],84.7 µM (active)
CCCCOc1ccc(CC2C(=O)N(C)C(=O)N(C)C2=O)cc1,AC50,[10],1.76 µM (active)
same,AC50,[11],12.5 µM (active)
CC(C(=O)O)N1Cc2ccccc2C1=O (stereo not given),IC50,[12],> 200 µM (inactive)
same,IC50,[13],> 200 µM (inactive)
